# Assay results as given in US9855238B2, “Compositions comprising 15-HEPE and methods of using the same” (Afimmune Limited, priority 2015, dated 2018).
# Several values for one entry are separate records, joined by “and”; a condition that tells them apart may be missing. Equal values may be shown once.
# Experiments:
# Assay type in all cases: in vivo, human
# [1] = Phase I Part 1 single ascending dose (SAD) pharmacokinetics of plasma 15(S)-HEPE, fasted; settings: for AUC0-last / Cmax / Tlast / Tmax: plasma 15(S)-HEPE, Day 1; for AUC0-last / Cmax: geom. mean (geom. CV %); for Tlast / Tmax: median (minimum, maximum)
# Protocol: (§1) A Phase I, single-centre, randomised, double-blind, placebo-controlled study in male and female healthy volunteers aged 18 to 45 years, inclusive was performed. Fifty-seven (57) subjects were enrolled with 8 subjects per cohort (ideally 4 males and 4 females, but no less than 3 per gender). Cohort 5 enrolled a total of 9 subjects to account for discontinued subjects. The effective date of study commencement was defined as inclusion of the first subject (inclusion starts with the informed consent signature). Subjects who were enrolled in Part 1 of the study (single dose cohorts) could have been brought back and re-enrolled in Part 2 (multiple dose) provided they had no AEs related to the study drug and that there was at least a 14-day washout period before starting the multiple dose. There were 18 subjects who participated in both study parts. The subjects underwent screening within 21 days prior to study Day 1.
# Part 1 comprised 4 dose cohorts (100 mg, 500 mg, 1000 mg, and 2000 mg). Six (6) subjects were randomized to receive DS102 and 2 subjects received matching placebo. A single oral dose of DS102 or matching placebo was administered.
# (§2) In Part 1, DS102 capsules (Lot No. 2540M-1504) or matching placebo (Lot No. KM73) were administered in a single oral dose according to Table 1.
# (§3) For study Part 1, Cohorts 1, 2, 3, and 4 blood samples were taken predose on Day 1 up to 312 hours postdose. For study Part 2, Cohorts 5, 6, and 7 blood samples were taken on Days 1, 14, and 28 at predose and up to 168 hours postdose. The appropriate PK parameters, e.g., Cmax, Tmax, AUC0-24, AUC0-last, AUC0-inf, AUC % ext, Kel, t½, RCmax, and RAUC were presented, where appropriate. Plasma 15(S)-HEPE data contained many values below the limit of quantitation (BLQ) and only sparse measurable concentrations leading to incomplete PK profiles. Given the nature of the data observed, conventional dose proportionality and steady-state analyses could not be performed. No inferential statistical analyses were performed for PK parameters.
# (§4) Summary statistics, including sample size (N), arithmetic mean (mean), standard deviation (SD), coefficient of variation (CV %), median, minimum, and maximum were calculated for all nominal concentration time points. Plasma 15(S)-HEPE PK parameters were tabulated by treatment and listed by subject and parameter. Summary statistics (N, mean, SD, CV %, median, minimum, and maximum) were calculated for plasma 15(S)-HEPE PK parameters. In addition, geometric mean (Geom. Mean) and geometric CV % (Geom. CV %) were presented for AUCs and Cmax. Excluded subjects were included in the PK parameter table listings, but were excluded from the summary statistics and noted as such in the tables. Mean and individual concentration-time profiles were presented on linear and semi-log scales. Linear mean plots were presented with and without SD. Individual plots were presented on linear and semi-log scales.
# [2] = Phase I Part 1 food effect pharmacokinetics of plasma 15(S)-HEPE (standard ATPIII/TLC diet, high-fat diet); settings: for Tlast / Tmax: median
# Protocol: as §1
# Cohort 2 also received 500 mg of DS102 in 2 fed states. While the first 500 mg dose was given in fasted state, the second and third 500 mg doses were given in fed state (standard ATPIII/TLC diet and high-fat diet, respectively). The second dose was received at least 14 days after their first dose and the third dose was received at least 14 days after their second dose.
# as §2, §3, §4
# [3] = Phase I Part 2 multiple ascending dose (MAD) pharmacokinetics of plasma 15(S)-HEPE, QD for 28 days, fasted; settings: for AUC0-last / Cmax: geom. mean; for Tlast / Tmax: median; for RAUC / RCmax: mean ± SD
# Protocol: as §1
# Part 2 of the study involved a multipledose regimen at 3 dose levels using 3 cohorts consisting of 8 subjects each. Six (6) subjects were randomized to receive DS102 and 2 subjects received matching placebo. Cohorts 5 and 6 (9 and 8 subjects, respectively) received oral DS102 or placebo QD for 28 days.
# In Part 2, DS102 capsules (Lot No. 2540M-1504) or matching placebo (Lot No. KM73) were administered QD for 28 days according to Table 2.
# as §3, §4
# [4] = Phase I safety evaluation (AEs, clinical laboratory tests, vital signs, ECGs); settings: healthy subjects
# Protocol: as §1
# All clinical safety data were presented in by-subject data listings. Safety was evaluated by clinical laboratory tests, physical examination, vital signs, electrocardiograms (ECGs), and adverse events (AEs).
# Continuous variables were summarized using number of observations (N), mean, SD, median, minimum, and maximum. Frequency counts were reported for categorical data. AEs were classified according to the Medical Dictionary for Regulatory Activities (MedDRA®), Version 18.0. Concomitant medications were classified according to the World Health Organization (WHO) Drug Dictionary 1 Mar. 2015. Vital sign, ECG, and laboratory summary and change from baseline results were presented. Shift tables were also presented for laboratory and ECG parameters.
# [5] = single oral 500 mg fasted, N = 2
# [6] = single oral 1000 mg fasted, N = 3
# [7] = single oral 2000 mg fasted, N = 3
# [8] = plasma 15(S)-HEPE, single oral 500 mg fed high fat diet, N = 6, geom. mean
# [9] = plasma 15(S)-HEPE, single oral 500 mg fed high fat diet, N = 6
# [10] = plasma 15(S)-HEPE, single oral 500 mg fed standard diet, N = 6, geom. mean
# [11] = plasma 15(S)-HEPE, single oral 500 mg fed standard diet, N = 6
# [12] = single oral 500 mg with a standard or high-fat diet
# [13] = 500 mg QD fasted, Days 14 and 28
# [14] = plasma 15(S)-HEPE, 500 mg QD fasted, Day 1, N = 6
# [15] = plasma 15(S)-HEPE, 500 mg QD fasted, Day 1, reported only for Subject 38
# [16] = plasma 15(S)-HEPE, 500 mg QD fasted, Day 14, N = 3
# [17] = plasma 15(S)-HEPE, 500 mg QD fasted, Day 28, N = 2
substance,measurement,setting,value
15-Hydroxy-Eicosapentaenoic Acid Ethyl Ester [DS102],AUC0-last,[1]; [5],1270 (70.9) ng * hr/mL and 1270 ng * hr/mL
same,Cmax,[1]; [5],343.7 (52.1) ng/mL and 343.7 ng/mL
same,Tlast,[1]; [5],"8.001 (8.00, 8.00) hr and 8.001 hr"
same,Tmax,[1]; [5],"6.005 (6.00, 6.01) hr and 6.005 hr"
same,AUC0-last,[1]; [6],1063 (102.6) ng * hr/mL
same,Cmax,[1]; [6],366.2 (102.5) ng/mL
same,Tlast,[1]; [6],"7.999 (8.00, 8.00) hr"
same,Tmax,[1]; [6],"5.996 (5.99, 6.00) hr"
same,AUC0-last,[1]; [7],733.3 (56.5) ng * hr/mL
same,Cmax,[1]; [7],294.3 (70.1) ng/mL
same,Tlast,[1]; [7],"8.001 (8.00, 8.01) hr"
same,Tmax,[1]; [7],"8.001 (6.01, 8.01) hr"
same,Plasma concentrations of 15(S)-HEPE,"[1]; single oral 100 mg fasted, entire sampling interval, all subjects",BLQ
same,median Tmax,[1]; single oral 500 mg fasted,6.00 h
same,median Tmax,[1]; single oral 1000 mg fasted,6.00 h
same,median Tmax,[1]; single oral 2000 mg fasted,8.00 h
same,delay of apparition of 15(S)-HEPE in plasma,[2]; 500 mg with high-fat diet compared to standard diet,2 h
same,effect of fed state on 15(S)-HEPE absorption,[2]; fed state (standard or high-fat diet),considerably increase 15(S)-HEPE absorption
same,AUC0-last,[2]; [8],9693 ng·h/mL
same,Cmax,[2]; [8],2402 ng/mL
same,Tlast,[2]; [9],11.993 h
same,Tmax,[2]; [9],6.021 h
same,AUC0-24,[2]; [10],10940 ng·h/mL
same,AUC0-last,[2]; [10],8450 ng·h/mL
same,Cmax,[2]; [10],2420 ng/mL
same,Tlast,[2]; [11],8.017 h
same,Tmax,[2]; [11],4.014 h
same,AUC0-inf,"[2]; plasma 15(S)-HEPE, single oral 500 mg fed standard diet, calculable for 4 subjects, geom. mean",11050 ng·h/mL
same,t½,"[2]; plasma 15(S)-HEPE, single oral 500 mg fed standard diet, calculable for 4 subjects, mean ± SD",1.998 ± 1.5155 h
same,Kel,"[2]; plasma 15(S)-HEPE, single oral 500 mg fed standard diet, mean ± SD",0.471 ± 0.228 h⁻¹
same,median Tmax,[2]; single oral 500 mg after a high-fat diet,6.00 h
same,median Tmax,[2]; single oral 500 mg after a standard diet,4.00 h
same,time at which peak mean plasma concentrations were reached,[2]; [12],approximately 4 hours
same,time plasma concentrations remained quantifiable in at least one subject,[2]; [12],12 hours postdose
same,mean 15(S)-HEPE t½,"[2]; single oral 500 mg, standard diet",2.00 h and 2.0 h
same,effect of diet on mean maximum and overall exposure of 15(S)-HEPE (Cmax and AUC0-last),"[2]; single oral 500 mg, standard or high-fat diet relative to fasted",increased mean maximum and overall exposure
same,"mean plasma concentrations of 15(S)-HEPE, fed versus fasted","[2]; single oral 500 mg, standard or high-fat diet vs fasted",higher under fed conditions
same,time of peak mean 15(S)-HEPE concentrations,"[3]; 500 mg QD fasted, Day 1",4 h
same,time plasma concentrations remained measurable in at least one subject,"[3]; 500 mg QD fasted, Day 14",24 hours postdose
same,time plasma concentrations remained measurable in at least one subject,"[3]; 500 mg QD fasted, Days 1 and 28",12 hours postdose
same,predose values (troughs),[3]; [13],not quantifiable
same,time of peak mean 15(S)-HEPE concentrations,[3]; [13],6 h
same,mean plasma 15(S)-HEPE concentrations by study day,[3]; 1000 mg QD fasted,higher on Day 14 than on Days 1 and 28
same,time plasma concentrations remained quantifiable in at least one subject,"[3]; 1000 mg QD fasted, Day 14",12 hours postdose
same,time plasma concentrations remained quantifiable in at least one subject,"[3]; 1000 mg QD fasted, Days 1 and 28",8 hours postdose
same,predose values (troughs),"[3]; 1000 mg QD fasted, Days 14 and 28",no quantifiable predose values
same,AUC0-last,[3]; [14],1681 ng·h/mL
same,Cmax,[3]; [14],459.1 ng/mL
same,Tlast,[3]; [14],8.079 h
same,Tmax,[3]; [14],5.005 h
same,AUC0-24,[3]; [15],6249 ng·h/mL
same,AUC0-inf,[3]; [15],6277 ng·h/mL
same,Kel,[3]; [15],0.245 h⁻¹
same,t½,[3]; [15],2.824 h
same,AUC0-last,[3]; [16],2370 ng·h/mL
same,Cmax,[3]; [16],644.1 ng/mL
same,RAUC,[3]; [16],6.807 ± 10.322
same,RCmax,[3]; [16],4.177 ± 5.4055
same,Tlast,[3]; [16],8.034 h
same,Tmax,[3]; [16],5.995 h
same,AUC0-last,[3]; [17],2787 ng·h/mL
same,Cmax,[3]; [17],737.4 ng/mL
same,RAUC,[3]; [17],8.205 ± 10.210
same,RCmax,[3]; [17],5.923 ± 6.8329
same,Tlast,[3]; [17],10.002 h
same,Tmax,[3]; [17],6.004 h
same,adverse events considered related to the study treatment,[4]; following DS102 treatment,dysguesia and eructation
same,"deaths, serious adverse events, discontinuations due to AEs",[4]; single and multiple ascending doses,"no deaths, serious adverse events (SAEs), or subject discontinuations due to AEs"
same,safety and tolerability,"[4]; single ascending doses of 100 mg, 500 mg, 1000 mg and 2000 mg and multiple ascending doses of 500 mg, 500 and 1000 mg",safe and well tolerated
